In patent publication US20110207729A1, “BICYCLIC ACYLGUANIDINE DERIVATIVE” (ASTELLAS PHARMA INC., priority 2007, published 2011) one finds Ki data, which are given here for 57 compounds.

Structures are written as SMILES. pKi: −log10 of the molar value. Where a name gives a salt, the structure may show the parent alone.

The target in this experiment is T1, human 5-HT5A receptor (Homo sapiens, UniProt P47898).
T1 construct: expressed in transfected cells; membrane preparation
T1 sequence (P47898 whole entry): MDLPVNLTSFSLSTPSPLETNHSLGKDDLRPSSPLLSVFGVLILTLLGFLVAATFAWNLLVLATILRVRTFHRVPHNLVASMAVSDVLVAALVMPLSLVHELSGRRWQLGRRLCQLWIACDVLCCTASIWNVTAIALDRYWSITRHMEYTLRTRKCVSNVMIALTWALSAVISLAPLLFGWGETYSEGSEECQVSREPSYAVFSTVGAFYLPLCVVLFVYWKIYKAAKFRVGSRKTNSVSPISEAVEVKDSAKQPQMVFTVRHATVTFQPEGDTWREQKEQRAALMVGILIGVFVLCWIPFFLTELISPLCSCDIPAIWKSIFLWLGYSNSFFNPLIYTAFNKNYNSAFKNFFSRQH
Description: Test on a human 5-HT5A receptor binding inhibition ([3H]5-CT). The settings on record: membrane from HEK293 cells expressing human 5-HT5A receptor; Ki calculated from IC50 and Kd 4.95 nM. Here is the method: Acquisition of HEK293 cells for forced expressions of a human 5-HT5A receptor
The ORF (open reading frame; protein coding region) of a human 5-HT5A receptor (Genbank AF498985) was cloned from a human hippocampus cDNA library, and then inserted into a pCR2.1 vector (Invitrogen), and Escherichia coli containing the plasmid was cultured in a large amount. Next, the full-length cDNA sequence of the human 5-HT5A receptor was analyzed, and recombined into a pcDNA3.1 vector (Invitrogen) as an expression vector and cultured in a large amount. HEK293 established cells (ATCC) derived from the human fetal kidney were seeded, the expression plasmid (1 μg) obtained above were added thereto with LIPOFECTAMINE 2000 (Invitrogen; 2 μl), the gene was transfected into HEK293 cells, and the expression cells were screened with a drug-resistant marker, Geneticin (G418 sulfate 500 μg/ml; Kanto Chemical Co., Inc.). Thus prepared recombinant cells which express the gene were cultured in a medium containing D-MEM (Dulbecco's modified eagle medium, Sigma), 10% FCS (Fetal calf serum: fetal bovine serum), 1% Pc./Sm (Penicillin/Streptomycin, Invitrogen), and 500 μg/ml G418 for 3 days. These experimental operations follow an manual for gene operation experiment and an instruction appended in a reagent, and the like, such as a known method (Sambrook, J. et al, Molecular Cloning—A Laboratory Manual”, Cold Spring Harabor laboratory, NY, 1989).
(1) Preparation of a Membrane from HEK293 Cells for Forced Expressions of a Human 5-HT5A Receptor
HEK293 cells for forced expressions of a human 5-HT5A receptor were cultured in a F500 plate, and scraped with a scraper. After centrifugation, a precipitate was collected, and an incubation buffer (50 mM Tris (HCl) (pH 7.4), 10 mM MgSO4, and 0.5 mM EDTA (ethylenediamine tetraacetic acid)) were added thereto. After homogenization, it was further centrifuged, and the precipitate was added with the incubation buffer, followed by thoroughly suspending. This operation was repeated, and a protein concentration was measured, thereby completing the preparation of a membrane.
(2) Test on a Human 5-HT5A Receptor Binding Inhibition
A solution of a compound to be tested and 100 μM 5-CT (5-carboxamidetriptamine) in DMSO was added to a 96-well plate at 2 μl/well, and suspended in an incubation buffer, and a membrane from HEK293 cells for forced expressions of a human 5-HT5A receptor prepared at 200 μg/ml was added at 100 μl/well. After incubation at room temperature for 15 minutes, a [^3H]5-CT solution (2 nM [^3H]5-CT, incubation buffer) was added thereto at 100 μl/well.
Separately, 100 μl of the solution was distributed into a liquid scintillation vial, and 2 ml of Aquasol II (registered trademark) was added thereto, followed by stirring. Then, a radioactivity was measured by a liquid scintillation counter. It was incubated at 37° C. for 60 minutes. The reaction mixture was sucked into 96-well GF/C filter plate that had been pre-treated with 0.2% polyethyleneimine, and washed six times with an ice-cooled, 50 mM Tris (pH 7.5) buffer. The GF/C filter plate was dried.
Microscint TMPS (registered trademark) was added thereto at 40 μl/well. A radioactivity remaining on the GF/C filter plate was measured by a top counter.
The [^3H]5-CT binding inhibiting activity by the compound to be tested in each experiment was determined as an IC50 value with a radioactivity upon addition of DMSO alone being 0% inhibition, and a radioactivity upon addition of 1 μM 5-CT being 100% inhibition. Separately, a Ki value was calculated from the Kd value of the [^3H]5-CT determined from Scatchard analysis, by the following equation.
Ki=IC50(1+Concentration of ligands added/Kd(4.95 nM))
For orientation: pKi means the Ki on a negative log10 scale, so that one unit is a factor of ten. For the compound `Cc1ccc(C2=CCOc3ccc(C(=O)N=C(N)N)cc32)c(Cl)c1` [Example 1-91], the pKi was 8.52 to 9.52.

`NC(N)=NC(=O)c1ccc2c(c1)C(c1ccc(O)cc1)=CCC2` [Example 2-52]: the pKi is 8.52 to 9.52.

With `NC(N)=NC(=O)c1ccc2c(c1)C(c1cc(C(F)(F)F)ccc1F)=CCO2` [Example 1-65], the pKi is 7.52 to 8.52.

As for `COc1cc(F)ccc1C1=CCCc2ccc(C(=O)N=C(N)N)cc21` [Example 2-54], the pKi is 8.52 to 9.52.

For `N#Cc1cc(C2=CCCc3ccc(C(=O)N=C(N)N)cc32)ccc1F` [Example 2-62], the pKi is 6.52 to 7.52.

For `NC(N)=NC(=O)c1ccc2c(c1)C(N1CCNCC1)CCC2` (stereo not drawn) [Example 3-01, N-(diaminomethylene)-8-piperazin-1-yl-5,6,7,8-tetrahydronaphthalene-2-carboxamide trihydrochloride], the pKi is 6.52 to 7.52.

Turning to `NC(N)=NC(=O)c1ccc2c(c1)C(c1cccc(C(F)(F)F)c1)=CCO2` [Example 1-52], the pKi was 7.52 to 8.52.

Take `CCOc1ccccc1C1=CCCc2ccc(C(=O)N=C(N)N)cc21` [Example 2-44]: the pKi was 6.52 to 7.52.

On to `NC(N)=NC(=O)c1ccc2c(c1)C(c1ccncc1F)=CCC2` [Example 2-158], for which the pKi was 8.52 to 9.52.

Consider `NC(N)=NC(=O)c1ccc2c(c1)C(c1cccc(CO)c1)=CCC2` [Example 2-34], for which the pKi was 7.52 to 8.52.

Take `COc1ccccc1C1=CCCOc2ccc(C(=O)N=C(N)N)cc21` [Example 3-11]: the pKi is 7.52 to 8.52.

On to `NC(N)=NC(=O)c1ccc2c(c1)C(c1cccc(F)c1Cl)=CCO2` [Example 1-102], for which the pKi was 8.52 to 9.52.

As for `NC(N)=NC(=O)c1ccc2c(c1)C(c1ccoc1)=CCC2` [Example 2-01, N-(diaminomethylene)-8-(3-furyl)-5,6-dihydronaphthalene-2-carboxamide methane sulfonate], the pKi is 7.52 to 8.52.

As for `CC1C=C(c2cccnc2F)c2cc(C(=O)N=C(N)N)ccc2O1` (stereo not drawn) [Example 1-134], the pKi was 6.52 to 7.52.

On to `NC(N)=NC(=O)c1ccc2scc(-c3ccncc3)c2c1` [Example 3-37], for which the pKi is 6.52 to 7.52.

As for `NC(N)=NC(=O)c1ccc2c(c1)C(c1ccccc1C(F)(F)F)=CCO2` [Example 1-15], the pKi was 7.52 to 8.52.

With `NC(N)=NC(=O)c1ccc2c(c1)C(c1ccc3nccn3c1)=CCC2` [Example 2-171], the pKi is 7.52 to 8.52.

`N#Cc1ccc(C2=CCCc3ccc(C(=O)N=C(N)N)cc32)cc1` [Example 2-25]: the pKi was 8.52 to 9.52.

In the case of `NC(N)=NC(=O)c1ccc2c(c1)C(c1c(F)cc(F)cc1F)=CCCC2` [Example 3-05], the pKi was 7.52 to 8.52.

For the compound `NC(N)=NC(=O)c1ccc2c(c1)C(c1cccc3c1OCCO3)=CCC2` [Example 2-189], the pKi was 6.52 to 7.52.

As to `CC1C=C(c2c(F)cc(F)cc2F)c2cc(C(=O)N=C(N)N)ccc2O1` (stereo not drawn) [Example 1-71], the negative-log Ki (pKi) was 8.52 to 9.52.

As for `NC(N)=NC(=O)c1ccc2c(c1)C(C1CCOCC1)=CCC2` [Example 2-31], the pKi was 7.52 to 8.52.

Turning to `CCCC1=C(c2ccccc2)c2cc(C(=O)N=C(N)N)ccc2CC1` [Example 2-116], the pKi is 6.52 to 7.52.

Turning to `COc1ccccc1C1=CCOc2c(F)cc(C(=O)N=C(N)N)cc21` [Example 1-86], the pKi was 7.52 to 8.52.

For `COc1ccc(C2=CCCc3ccc(C(=O)N=C(N)N)cc32)c(C#N)c1` [Example 2-68], the pKi is 6.52 to 7.52.

As for `NC(N)=NC(=O)c1cc(F)c2c(c1)C(c1c(F)cc(F)cc1F)=CCO2` [Example 1-85], the pKi is 7.52 to 8.52.

Regarding `CC1(C)C=C(c2cc(F)c(F)cc2F)c2cc(C(=O)N=C(N)N)ccc2O1` [Example 1-120], the negative-log Ki (pKi) was 6.52 to 7.52.

Regarding `CC1(C)C=C(c2ccc(F)c(F)c2F)c2cc(C(=O)N=C(N)N)ccc2O1` [Example 1-119], the pKi was 6.52 to 7.52.

In the case of `COc1ccccc1C1=CCCCc2ccc(C(=O)N=C(N)N)cc21` [Example 3-06], the pKi is 6.52 to 7.52.

For `NC(N)=NC(=O)c1ccc2c(c1)C(c1ccccc1)=C(F)CO2` [Example 1-14], the pKi was 9.01.

On to `NC(N)=NC(=O)c1ccc2c(c1)C(c1cccc(F)c1)=CCC2` [Example 2-08], for which the pKi was 7.52 to 8.52.

Turning to `NC(N)=NC(=O)c1ccc2oc(=O)cc(-c3c(F)cc(F)cc3F)c2c1` [Example 1-104], the pKi is 6.52 to 7.52.

For the compound `NC(N)=NC(=O)c1ccc2c(c1)C(c1ccc(F)cc1Cl)=CCO2` [Example 1-55], the pKi was 8.52 to 9.52.

`CCC1=C(c2ccccc2)c2cc(C(=O)N=C(N)N)ccc2CC1` [Example 2-115]: the pKi was 7.52 to 8.52.

Regarding `COc1cc(F)cc(F)c1C1=CCCc2ccc(C(=O)N=C(N)N)cc21` [Example 2-179], the pKi was 7.52 to 8.52.

In the case of `NC(N)=NC(=O)c1ccc2c(c1)C(c1c(F)cc(F)cc1F)=CCC2` [Example 2-60], the pKi is 8.52 to 9.52.

For the compound `COc1cc(F)ccc1C1=C(C)CCc2ccc(C(=O)N=C(N)N)cc21` [Example 2-71], the pKi was 7.52 to 8.52.

Take `COc1ncccc1C1=CCCc2ccc(C(=O)N=C(N)N)cc21` [Example 2-140]: the pKi is 7.52 to 8.52.

For `NC(N)=NC(=O)c1ccc2c(c1)C(c1ccco1)=CCC2` [Example 2-20], the pKi is 7.52 to 8.52.

As to `NC(N)=NC(=O)c1ccc2c(c1)C(c1ccc(F)nc1)=CCC2` [Example 2-53], the pKi was 7.52 to 8.52.

As to `NC(N)=NC(=O)c1ccc2c(c1)C(c1ccc(Oc3ccccc3)cc1)=CCC2` [Example 2-07], the negative logarithm of the Ki (pKi) was 6.52 to 7.52.

On to `NC(N)=NC(=O)c1ccc2scc(-c3c(F)cc(F)cc3F)c2c1` [Example 3-14], for which the pKi was 8.52 to 9.52.

Regarding `CC(C)Oc1ccccc1C1=CCCc2ccc(C(=O)N=C(N)N)cc21` [Example 2-45], the negative logarithm of the Ki (pKi) is 6.52 to 7.52.

Regarding `Cc1ccc(C2=CCCc3ccc(C(=O)N=C(N)N)cc32)c(C#N)c1` [Example 2-79], the pKi was 7.52 to 8.52.

`COc1cccc(C2=CCCc3ccc(C(=O)N=C(N)N)cc32)c1C#N` [Example 2-181]: the pKi is 6.52 to 7.52.

Turning to `COc1cc(C#N)ccc1C1=CCCc2ccc(C(=O)N=C(N)N)cc21` [Example 2-55], the pKi is 8.52 to 9.52.

As to `NC(N)=NC(=O)c1ccc2c(c1)C(c1ccccc1)=C(F)CC2` [Example 2-43], the pKi is 8.52 to 9.52.

As to `COCCN/C(N)=N/C(=O)c1ccc2c(c1)C(c1c(F)cccc1F)=CCO2` [Example 1-03, N-{1-amino[(2-methoxyethyl)amino]methylene}-4-(2,6-difluorophenyl)-2H-chromene-6-carboxamide hydrochloride], the pKi was 7.52 to 8.52.

Consider `NC(N)=NC(=O)c1ccc2c(c1)C(c1cccnc1Cl)=CCC2` [Example 2-176], for which the pKi was 7.52 to 8.52.

As to `NC(N)=NC(=O)c1ccc2c(c1)C(c1ccc(C(F)(F)F)cc1C(F)(F)F)=CCC2` [Example 2-117], the pKi was 6.52 to 7.52.

On to `COc1cccc(C2=CCCc3ccc(C(=O)N=C(N)N)cc32)c1` [Example 2-05], for which the pKi was 7.52 to 8.52.

Regarding `NC(N)=NC(=O)c1ccc2c(c1)C(c1ccccc1O)=CCC2` [Example 2-50], the pKi is 7.52 to 8.52.

Consider `NC(N)=NC(=O)c1ccc2c(c1)C(c1cncc(F)c1)=CCC2` [Example 2-123], for which the pKi is 6.52 to 7.52.

Turning to `COc1ccc(C#N)cc1C1=CCCc2ccc(C(=O)N=C(N)N)cc21` [Example 2-61], the negative logarithm of the Ki (pKi) was 7.52 to 8.52.

For `NC(N)=NC(=O)c1ccc2c(c1)C(c1ccc(F)c(F)c1F)=CCC2` [Example 2-95], the pKi is 8.52 to 9.52.

With `NC(N)=NC(=O)c1ccc2c(c1)C(c1c(F)cc(F)cc1F)=CCS2` [Example 3-16], the pKi is 8.52 to 9.52.

As for `CC1C=C(c2ccncc2)c2cc(C(=O)N=C(N)N)ccc2O1` (stereo not drawn) [Example 1-133], the pKi was 6.52 to 7.52.
